Source: patent publication US7179801B2, “Cephem compounds” (Astellas Pharma Inc., priority 2001, dated 2007)
In brackets after ≈: the same amount, converted by molar mass.

Test system: Pseudomonas aeruginosa FP 2056
Assay: In vitro antibacterial activity (MIC), two-fold agar-plate dilution method
Format: cell-based
Conditions: FP2056; test strain Pseudomonas aeruginosa FP 2056; heart infusion agar, 37° C. for 20 hours; read-out: MIC (minimal inhibitory concentration)
Method: In vitro antibacterial activity was determined by the two-fold agar-plate dilution method as described below. One loopful of an overnight culture of each test strain in Trypticase-soy broth (10^6 viable cells per ml) was streaked-on heart infusion agar (HI-agar) containing graded concentrations of representative test compound, and the minimal inhibitory concentration (MIC) was expressed in μg/ml after incubation at 37° C. for 20 hours.

| MIC | SMILES |
| --- | --- |
| 1 µg/mL (≈ 1.61 µM) | Cn1c(N)c(CCCN)c[n+]1CC1=C(C(=O)[O-])N2C(=O)[C@@H](NC(=O)/C(=N\OC(C)(C)C(=O)O)c3nsc(N)n3)[C@H]2SC1 [Compound (a), 7β-[(Z)-2-(5-amino-1,2,4-thiadiazol-3-yl)-2-(1-carboxy-1-methylethoxyimino)acetamido]-3-[3-amino-4-(3-aminopropyl)-2-methyl-1-pyrazolio]methyl-3-cephem-4-carboxylate] |
| 0.5 µg/mL (≈ 0.821 µM) | Cn1c(N)c(CCN)c[n+]1CC1=C(C(=O)[O-])N2C(=O)[C@@H](NC(=O)/C(=N\OC(C)(C)C(=O)O)c3nsc(N)n3)[C@H]2SC1 [Compound (b), 7β-[(Z)-2-(5-amino-1,2,4-thiadiazol-3-yl)-2-(1-carboxy-1-methylethoxyimino)acetamido]-3-[3-amino-4-(2-aminoethyl)-2-methyl-1-pyrazolio]methyl-3-cephem-4-carboxylate] |
